K ass data for 16 compounds are collected here from ChEMBL document CHEMBL1130966, “Dibasic benzo[b]thiophene derivatives as a novel class of active site directed thrombin inhibitors. 2. Exploring interactions at the proximal (S2) binding site” (Bioorg Med Chem Lett, 1998).

Molecules are shown by their SMILES.

The test addresses Prothrombin (Homo sapiens) (UniProt P00734). In words: Binding affinity for human alpha-thrombin.
With `Brc1cc(OCCN2CCCC2)ccc1Cc1c(-c2ccc(OCCN3CCCC3)cc2)sc2ccccc12`, the K ass was 270000 l M-1.
The same measure for `CS(=O)(=O)Nc1cc(Cc2c(-c3ccc(OCCN4CCCC4)cc3)sc3ccccc23)ccc1OCCN1CCCC1`: 410000 l M-1.
`FC(F)(F)c1cc(Cc2c(-c3ccc(OCCN4CCCC4)cc3)sc3ccccc23)ccc1OCCN1CCCC1`: the K ass was 2.4e+06 l M-1.
Regarding `O=[N+]([O-])c1cc(Cc2c(-c3ccc(OCCN4CCCC4)cc3)sc3ccccc23)ccc1OCCN1CCCC1`, the K ass is 1.02e+07 l M-1.
As to `Nc1cc(Cc2c(-c3ccc(OCCN4CCCC4)cc3)sc3ccccc23)ccc1OCCN1CCCC1`, the K ass is 1.1e+06 l M-1.
Regarding `Cc1cc(Cc2c(-c3ccc(OCCN4CCCC4)cc3)sc3ccccc23)ccc1OCCN1CCCC1`, the K ass is 2.42e+07 l M-1.
Take `Oc1cc(Cc2c(-c3ccc(OCCN4CCCC4)cc3)sc3ccccc23)ccc1OCCN1CCCC1`: the K ass was 1.1e+06 l M-1.
For `CCCCc1cc(Cc2c(-c3ccc(OCCN4CCCC4)cc3)sc3ccccc23)ccc1OCCN1CCCC1`, the K ass is 420000 l M-1.
The same measure for `CC(=O)Nc1cc(Cc2c(-c3ccc(OCCN4CCCC4)cc3)sc3ccccc23)ccc1OCCN1CCCC1`: 310000 l M-1.
The same measure for `COc1cc(Cc2c(-c3ccc(OCCN4CCCC4)cc3)sc3ccccc23)ccc1OCCN1CCCC1`: 1.22e+07 l M-1; for `CCc1cc(Cc2c(-c3ccc(OCCN4CCCC4)cc3)sc3ccccc23)ccc1OCCN1CCCC1`: 7.27e+06 l M-1; for `O=S(=O)(Nc1cc(Cc2c(-c3ccc(OCCN4CCCC4)cc3)sc3ccccc23)ccc1OCCN1CCCC1)c1ccccc1`: 220000 l M-1.
The same measure for `Fc1cc(Cc2c(-c3ccc(OCCN4CCCC4)cc3)sc3ccccc23)ccc1OCCN1CCCC1`: 4.87e+06 l M-1; for `CCCc1cc(Cc2c(-c3ccc(OCCN4CCCC4)cc3)sc3ccccc23)ccc1OCCN1CCCC1`: 1.02e+06 l M-1.
`Brc1cc(Cc2c(-c3ccc(OCCN4CCCC4)cc3)sc3ccccc23)ccc1OCCN1CCCC1`: the K ass is 2.75e+07 l M-1.
Next, `CCNc1cc(Cc2c(-c3ccc(OCCN4CCCC4)cc3)sc3ccccc23)ccc1OCCN1CCCC1`: 290000 l M-1.
